Experimental data reported in patent US20240252488A1 (KOREA RESEARCH INSTITUTE OF CHEMICAL TECHNOLOGY, priority 2020, published 2024).

Columns and labels:
FADD−/− Jurkat cells = test: Necroptosis inhibition assay, TNF-α-induced necroptosis (CellTiter-Glo 2.0); format: cell-based, human; details: TNF-α 15 ng/mL; for Necroptosis inhibition assay (Rescue %) 1 μM: compound 1 μM; for Necroptosis inhibition assay (Rescue %) 10 μM: compound 10 μM
Outline: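 Cells at 5.0×10^5 cells/mL were pretreated with compound (final 0.1, 1 and 10 μM) for 30 minutes at room temperature, then given TNF-α at 15 ng/mL final. After 20 to 24 hours at 37° C, 5% CO2, viability was read as ATP luminescence to calculate cytotoxicity and necroptosis inhibition rate.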

MLKL [1] = molecular target: T1, MLKL (Homo sapiens, UniProt Q8NB16); test: MLKL degradation assay in HepG2 cell line (western blot); format: cell-based; parameters: endogenous in cells; host or cells: HepG2 or HaCaT; details: cell line not given; for Degradation assay (Degradation %) 1 μM: compound 1 μM; for Degradation assay (Degradation %) 10 μM: compound 10 μM
T1 sequence (Q8NB16 1-471): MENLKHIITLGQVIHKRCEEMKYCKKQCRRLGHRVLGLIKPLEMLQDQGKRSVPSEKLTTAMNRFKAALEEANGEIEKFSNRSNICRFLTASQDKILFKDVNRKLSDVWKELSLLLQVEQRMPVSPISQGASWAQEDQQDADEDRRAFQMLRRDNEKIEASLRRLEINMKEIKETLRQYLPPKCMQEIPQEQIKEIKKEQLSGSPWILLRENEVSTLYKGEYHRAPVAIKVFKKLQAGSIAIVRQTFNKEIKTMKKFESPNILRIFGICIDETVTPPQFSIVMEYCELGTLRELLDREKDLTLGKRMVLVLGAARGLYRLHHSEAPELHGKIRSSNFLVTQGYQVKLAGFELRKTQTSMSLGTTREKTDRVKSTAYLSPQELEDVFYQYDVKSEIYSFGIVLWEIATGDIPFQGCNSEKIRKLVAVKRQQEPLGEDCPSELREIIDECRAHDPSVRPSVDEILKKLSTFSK
Outline: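 HepG2 cells were exposed to compound at a final 1 or 10 μM for 20-24 hours at 37 °C, 5% CO2. RIPA lysates were normalized by BCA assay, 10-15 μg protein resolved by SDS-PAGE, and MLKL levels detected by western blot with chemiluminescence.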

MLKL [2] = molecular target: T1, MLKL; test: Measurement of binding affinity with MLKL receptor (competitive binding assay, Kd); parameters: made in house; host or cells: HEK 293 cell line (T7 phage in E. coli BL21-derived host is also described)
Outline: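 Competition binding of kinase tagged with DNA for qPCR detection, expressed in HEK 293 cells, against immobilized ligand on beads. Final DMSO 0.9%. Kd derived from kinase amount in eluates measured by qPCR.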

Structure (SMILES) | Necroptosis inhibition assay (Rescue %) 1 μM (FADD−/− Jurkat cells) [%] | Necroptosis inhibition assay (Rescue %) 10 μM (FADD−/− Jurkat cells) [%] | Degradation assay (Degradation %) 1 μM (MLKL [1]) [%] | Degradation assay (Degradation %) 10 μM (MLKL [1]) [%] | Kd (MLKL [2]) [nM] | Necroptosis inhibition assay (Rescue %) 1 μM (FADD−/− Jurkat cells; FADD−/− Jurkat cells) [%] | Necroptosis inhibition assay (Rescue %) 10 μM (FADD−/− Jurkat cells; FADD−/− Jurkat cells) [%]
Nc1ncc(-c2cnn(C3CCN(C(=O)COC4CCN(c5ccc6c(c5)C(=O)N(C5CCC(=O)NC5=O)C6=O)CC4)CC3)c2)nc1C(=O)O[C@@H](C(=O)Nc1ccc(F)cc1)c1ccccc1 (stereo partly drawn) [TDH-400, (R)-2-((4-fluorophenyl)amino)-2-oxo-1-phenylethyl 3-amino-6-(1-(1-(2-((1-(2-(2,6-dioxopiperidin-3-yl)-1,3-dioxoisoindolin-5-yl)piperidin-4-yl)oxy)acetyl)piperidin-4-yl)-1H-pyrazol-4-yl)pyrazine-2-carboxylate] | 27.80 | 28.44 | 82.22 | 74.77 | 4.4 |  | 
Nc1ncc(-c2cnn(C3CCN(C(=O)CC4CCN(C(=O)C5CN(c6ccc7c(c6)C(=O)N(C6CCC(=O)NC6=O)C7=O)C5)CC4)CC3)c2)nc1C(=O)O[C@@H](C(=O)Nc1ccc(F)cc1)c1ccccc1 (stereo partly drawn) [TDH-401, (R)-2-((4-fluorophenyl)amino)-2-oxo-1-phenylethyl 3-amino-6-(1-(1-(2-(1-(1-(2-(2,6-dioxopiperidin-3-yl)-1,3-dioxoisoindolin-5-yl)azetidine-3-carbonyl)piperidin-4-yl)acetyl)piperidin-4-yl)-1H-pyrazol-4-yl)pyrazine-2-carboxylate] |  |  | 74.27 | 72.99 | 6.8 | 33.10 | 28.25
Nc1ncc(-c2cnn(C3CCN(C(=O)CC4CCN(C(=O)CC5CCN(c6ccc7c(c6)C(=O)N(C6CCC(=O)NC6=O)C7=O)CC5)CC4)CC3)c2)nc1C(=O)O[C@@H](C(=O)Nc1ccc(F)cc1)c1ccccc1 (stereo partly drawn) [TDH-402, (R)-2-((4-fluorophenyl)amino)-2-oxo-1-phenylethyl 3-amino-6-(1-(1-(2-(1-(2-(1-(2-(2,6-dioxopiperidin-3-yl)-1,3-dioxoisoindolin-5-yl)piperidin-4-yl)acetyl)piperidin-4-yl)acetyl)piperidin-4-yl)-1H-pyrazol-4-yl)pyrazine-2-carboxylate] |  |  | 65.36 | 48.34 | 7.7 | 23.40 | 19.16
Nc1ncc(-c2cnn(C3CCN(C(=O)CC4CCN(C(=O)CCc5ccc6c(c5)C(=O)N(C5CCC(=O)NC5=O)C6=O)CC4)CC3)c2)nc1C(=O)O[C@@H](C(=O)Nc1ccc(F)cc1)c1ccccc1 (stereo partly drawn) [TDH-403, (R)-2-((4-fluorophenyl)amino)-2-oxo-1-phenylethyl 3-amino-6-(1-(1-(2-(1-(3-(2-(2,6-dioxopiperidin-3-yl)-1,3-dioxoisoindolin-5-yl)propanoyl)piperidin-4-yl)acetyl)piperidin-4-yl)-1H-pyrazol-4-yl)pyrazine-2-carboxylate] |  |  | 79.40 | 83.30 | 2.8 | 43.50 | 29.42
Nc1ncc(-c2cnn(C3CCN(C(=O)CC4CCN(C(=O)CCc5cccc6c5CN(C5CCC(=O)NC5=O)C6=O)CC4)CC3)c2)nc1C(=O)O[C@@H](C(=O)Nc1ccc(F)cc1)c1ccccc1 (stereo partly drawn) [TDH-404, (R)-2-((4-fluorophenyl)amino)-2-oxo-1-phenylethyl 3-amino-6-(1-(1-(2-(1-(3-(2-(2,6-dioxopiperidin-3-yl)-1-oxoisoindolin-4-yl)propanoyl)piperidin-4-yl)acetyl)piperidin-4-yl)-1H-pyrazol-4-yl)pyrazine-2-carboxylate] |  |  | 45.30 | 79.08 | 1.1 | 26.83 | 49.11
Nc1ncc(-c2cnn(C3CCN(C(=O)CC4CCN(C(=O)CNc5ccc6nnn(C7CCC(=O)NC7=O)c(=O)c6c5)CC4)CC3)c2)nc1C(=O)O[C@@H](C(=O)Nc1ccc(F)cc1)c1ccccc1 (stereo partly drawn) [TDH-405, (R)-2-((4-fluorophenyl)amino)-2-oxo-1-phenylethyl 3-amino-6-(1-(1-(2-(1-((3-(2,6-dioxopiperidin-3-yl)-4-oxo-3,4-dihydrobenzo[d][1,2,3]triazin-6-yl)glycyl)piperidin-4-yl)acetyl)piperidin-4-yl)-1H-pyrazol-4-yl)pyrazine-2-carboxylate] |  |  | 70.59 | 64.30 | 3.2 | 36.97 | 37.28
Nc1ncc(-c2cnn(C3CCN(C(=O)CC4CCN(C(=O)C5CN(c6ccc7nnn(C8CCC(=O)NC8=O)c(=O)c7c6)C5)CC4)CC3)c2)nc1C(=O)O[C@@H](C(=O)Nc1ccc(F)cc1)c1ccccc1 (stereo partly drawn) [TDH-406, (R)-2-((4-fluorophenyl)amino)-2-oxo-1-phenylethyl 3-amino-6-(1-(1-(2-(1-(1-(3-(2,6-dioxopiperidin-3-yl)-4-oxo-3,4-dihydrobenzo[d][1,2,3]triazin-6-yl)azetidine-3-carbonyl)piperidin-4-yl)acetyl)piperidin-4-yl)-1H-pyrazol-4-yl)pyrazine-2-carboxylate] |  |  | 77.69 | 60.15 | 6.5 | 44.99 | 39.97
Nc1ncc(-c2cnn(C3CCN(C(=O)CC4CCN(C(=O)C5CCN(c6ccc7nnn(C8CCC(=O)NC8=O)c(=O)c7c6)CC5)CC4)CC3)c2)nc1C(=O)O[C@@H](C(=O)Nc1ccc(F)cc1)c1ccccc1 (stereo partly drawn) [TDH-407, (R)-2-((4-fluorophenyl)amino)-2-oxo-1-phenylethyl 3-amino-6-(1-(1-(2-(1-(1-(3-(2,6-dioxopiperidin-3-yl)-4-oxo-3,4-dihydrobenzo[d][1,2,3]triazin-6-yl)piperidine-4-carbonyl)piperidin-4-yl)acetyl)piperidin-4-yl)-1H-pyrazol-4-yl)pyrazine-2-carboxylate] |  |  | 83.70 | 79.77 | 7.5 | 52.02 | 42.95
Nc1ncc(-c2cnn(C3CCN(C(=O)C4CCN(C(=O)CNc5ccc6nnn(C7CCC(=O)NC7=O)c(=O)c6c5)CC4)CC3)c2)nc1C(=O)O[C@@H](C(=O)Nc1ccc(F)cc1)c1ccccc1 (stereo partly drawn) [TDH-408, (R)-2-((4-fluorophenyl)amino)-2-oxo-1-phenylethyl 3-amino-6-(1-(1-(1-((3-(2,6-dioxopiperidin-3-yl)-4-oxo-3,4-dihydrobenzo[d][1,2,3]triazin-6-yl)glycyl)piperidine-4-carbonyl)piperidin-4-yl)-1H-pyrazol-4-yl)pyrazine-2-carboxylate] |  |  | 77.02 | 44.73 | 0.57 | 26.68 | 19.89
Nc1ncc(-c2cnn(C3CCN(C(=O)C4CCN(C(=O)C5CN(c6ccc7nnn(C8CCC(=O)NC8=O)c(=O)c7c6)C5)CC4)CC3)c2)nc1C(=O)O[C@@H](C(=O)Nc1ccc(F)cc1)c1ccccc1 (stereo partly drawn) [TDH-409, (R)-2-((4-fluorophenyl)amino)-2-oxo-1-phenylethyl 3-amino-6-(1-(1-(1-(1-(3-(2,6-dioxopiperidin-3-yl)-4-oxo-3,4-dihydrobenzo[d][1,2,3]triazin-6-yl)azetidine-3-carbonyl)piperidine-4-carbonyl)piperidin-4-yl)-1H-pyrazol-4-yl)pyrazine-2-carboxylate] |  |  | 81.20 | 71.90 | 1.6 | 39.62 | 24.45
Nc1ncc(-c2cnn(C3CCN(C(=O)C4CCN(C(=O)C5CCN(c6ccc7nnn(C8CCC(=O)NC8=O)c(=O)c7c6)CC5)CC4)CC3)c2)nc1C(=O)O[C@@H](C(=O)Nc1ccc(F)cc1)c1ccccc1 (stereo partly drawn) [TDH-410, (R)-2-((4-fluorophenyl)amino)-2-oxo-1-phenylethyl 3-amino-6-(1-(1-(1-(1-(3-(2,6-dioxopiperidin-3-yl)-4-oxo-3,4-dihydrobenzo[d][1,2,3]triazin-6-yl)piperidine-4-carbonyl)piperidine-4-carbonyl)piperidin-4-yl)-1H-pyrazol-4-yl)pyrazine-2-carboxylate] |  |  | 85.29 | 65.91 | 1.1 | 48.51 | 27.36
